# From US5034544A, “Antiviral 2,3-bis-(aryl)-3-chloropropenal compounds” (priority 1989, dated 1991)
# pEC50, pIC50: −log10 of the molar value. Values joined by “and” are separate entries in the source; they are usually repeats but may differ in a detail not shown here. Equal entries are not always repeated. Where two headings read alike, the source gives them in different places.
# Tests used:
# [1] = test system: human immunodeficiency virus (HIV); experiment: microbe, parasite or virus in culture
# Protocol: (§1) The assay basically involves the killing of T4 lymphocytes by HIV in cell cultures. Small amounts of HIV are added to cells, and at least two complete cycles of virus reproduction are necessary to obtain the required killing. Agents which interact with virions, cells, or virus gene-products to interfere with viral activities will protect cells from cytolysis. All tests are compared with a positive control done at the same time under identical conditions. The positive control in these experiments was AZT.
# (§2) Harvest experiments were conducted in which HIV infected cell cultures were post-treated with the compound of Example 1 at a number of concentrations. T4 lymphocytes (CEM cell line) are exposed to HIV at a virus to cell ratio approximately 0.05, and plated along with noninfected control cells in 96-well microtiter plates. 2,3-Bis-(3,4-dimethoxyphenyl)-3-chloropropenal was dissolved in dimethyl sulfoxide, then diluted 1:200 in cell culture medium. Further dilutions (half-log10) are prepared before adding to an equal volume of medium containing either infected or noninfected cells. Plates are incubated at 37° C. in a 5% carbon dioxide atmosphere for 6 days. Triphenyl tetrazolium chloride (1% weight by volume) is added to each well and cultures are further incubated to allow color development of viable cells. Individual wells are analyzed spectrophotometrically to quantitate color production and are viewed microscopically for detection of viable cells and confirmation of protective activity. Drug-treated virus-infected cells are compared with drug-treated noninfected cells and other appropriate controls (untreated infected and untreated noninfected cells, drug-containing wells without cells, etc.) on the same plate. Data are reviewed in comparison with other tests done at the same time, and a determination about antiviral activity is made.
# (§3) The solid line connecting the diamond symbols depicts the percentage of surviving HIV-infected cells treated with the present test sample at the indicated concentration relative to uninfected, untreated controls. This line represents the in-vitro anti-HIV activity of the sample. The dashed line connecting the square symbols depicts the percentage of surviving uninfected cells treated with the present compound relative to the same uninfected, untreated controls. This line represents the in-vitro growth inhibitory properties. The viral cytopathic effect in this experiment is indicated by a dotted reference line. This line show the extent of destruction of cells by the virus in the absence of treatment and is used as a quality control parameter. Values of this parameter […] 50% are considered acceptable in the current protocol. Reference line at 50% is depicted as alternating dots and dashes.
# [2] = test system: T4 lymphocytes (CEM cell line); experiment: in-vitro growth inhibition / cytotoxicity in noninfected T4 lymphocytes (UNINFECTED CULTURE); format: cell-based; conditions: for cytotoxicity to uninfected cells (in words): visual / microscopic; for Response (%), uninfected culture (surviving uninfected cells, % of uninfected untreated control): 6 days, Tables 1-3 = separate experiments, 8640 min
# Protocol: as §1, §2, §3
# (§4) Also, every attempt was made to reduce variability in the assay procedure set forth hereinabove and the values for EC50, IC50 and Therapeutic Index (TI) were determined within experimental limitations.
# [3] = as above; format: cell-based; conditions: human, cem cells, 6 days, Table 4, read-out: Response (%), uninfected culture (surviving uninfected cells, % of uninfected untreated control)
# Protocol: as §1, §2, §3, §4
# [4] = Human immunodeficiency virus 1, CCRF-CEM, in Homo sapiens, 144 h, read-out: Response (%), infected culture (surviving HIV-infected cells, % of uninfected untreated control)
smiles,measurement,setting,value
"COc1ccc(C(Cl)=C(C=O)c2ccc(OC)cc2)cc1 [2,3-di-(4-methoxyphenyl)-3-chloro-acrylaldehyde, reference compound]",anti-HIV activity in cell culture (in words),[1],found unacceptable for further preclinical consideration
"O=CC(=C(Cl)c1ccc2c(c1)OCO2)c1ccc2c(c1)OCO2 [Example 3, 2,3-Bis-(3,4-Methylenedioxyphenyl)-3-Chloropropenal]",anti-HIV activity in cell culture (in words),[1],"produced mixed results under the experimental assay procedure reported hereinabove, the results clearly indicated antiviral activity"
same,"antiviral activity relative to 2,3-bis-(3,4-dimethoxyphenyl)-3-chloropropenal (in words)",[1],significantly less than that of the structurally analogous test compound
"Cc1cn([C@H]2C[C@H](N=[N+]=[N-])[C@@H](CO)O2)c(=O)[nH]c1=O [AZT, azidothymidine, reference compound]",cytotoxicity to uninfected cells (in words),[2]; uninfected culture,exhibited microscopic cytotoxicity to uninfected cells
"COc1ccc(C(Cl)=C(C=O)c2ccc(OC)c(OC)c2)cc1OC [Example 1, 2,3-Bis-(3,4-Dimethoxyphenyl)-3-Chloropropenal]","viability at 144 h, 230 µM",[3]; dose 2.30 × 10^-4 Molar,77.3%
same,"viability at 144 h, 23.1 µM",[3]; dose 2.31 × 10^-5 Molar,90.2%
same,"viability at 144 h, 2.31 µM",[3]; dose 2.31 × 10^-6 Molar,92.7%
same,"viability at 144 h, 0.231 µM",[3]; dose 2.31 × 10^-7 Molar,104%
same,"viability at 144 h, 73 µM",[3]; dose 7.30 × 10^-5 Molar,83.5%
same,"viability at 144 h, 7.31 µM",[3]; dose 7.31 × 10^-6 Molar,94.3%
same,"viability at 144 h, 0.732 µM",[3]; dose 7.32 × 10^-7 Molar,96.5%
same,"viability at 144 h, 0.0733 µM",[3]; dose 7.33 × 10^-8 Molar,101%
same,IC50,"[2]; Homo sapiens, CCRF-CEM, FIG. 1 / Table 1 experiment, uninfected CEM cells, read-out: IC50 (inhibition concentration required for 50% of cell growth)",> 83.7 µg/mL
same,pIC50,"[2]; Homo sapiens, CCRF-CEM, FIG. 4 / Table 4 experiment, uninfected CEM cells, read-out: IC50 (molar value), cell growth",< 3.64
same,"Response (%), uninfected culture (surviving uninfected cells, % of uninfected untreated control)",[2]; dose 2.64 × 10^+1 μg/ml,112.4% and 109.3% and 115.9%
same,"Response (%), uninfected culture (surviving uninfected cells, % of uninfected untreated control)",[2]; dose 2.65 × 10^+0 μg/ml,103.5% and 106.3% and 108.3%
same,"Response (%), uninfected culture (surviving uninfected cells, % of uninfected untreated control)",[2]; dose 2.65 × 10^-1 μg/ml,102.7% and 99.7% and 103.4%
same,"Response (%), uninfected culture (surviving uninfected cells, % of uninfected untreated control)",[2]; dose 2.66 × 10^-2 μg/ml,99.2% and 104.4%
same,"Response (%), uninfected culture (surviving uninfected cells, % of uninfected untreated control)",[2]; dose 8.37 × 10^+1 μg/ml,112.2% and 91.9% and 114.3%
same,"Response (%), uninfected culture (surviving uninfected cells, % of uninfected untreated control)",[2]; dose 8.38 × 10^+0 μg/ml,106.0% and 103.1% and 113.1%
same,"Response (%), uninfected culture (surviving uninfected cells, % of uninfected untreated control)",[2]; dose 8.39 × 10^-1 μg/ml,105.6% and 101.2% and 107.0%
same,"Response (%), uninfected culture (surviving uninfected cells, % of uninfected untreated control)",[2]; dose 8.40 × 10^-2 μg/ml,104.5% and 103.1% and 99.6%
same,cell growth in uninfected culture (in words),"[2]; uninfected culture, Tables 1-4",cell growth actually increased in most of these test results
same,cytotoxicity to uninfected cells (in words),[2]; uninfected culture,no significant visual or microscopic cytotoxicity was observed in the uninfected culture
same,selectivity compared to AZT (in words),[1],pronounced at the reported concentrations
same,"selectivity, infected vs. uninfected cells (in words)",[1],"selective, exhibiting toxicity to infected cells, yet not toxic towards normal cells or cells free of virus"
same,viability at 0.0266 µg/mL,[1]; [4],6.9%
same,viability at 0.0733 µM,[1]; [4],18.5%
same,viability at 0.084 µg/mL,[1]; [4],6.8%
same,viability at 0.231 µM,[1]; [4],18%
same,viability at 0.265 µg/mL,[1]; [4],5.4%
same,viability at 0.266 µg/mL,[1]; [4],8.2%
same,viability at 0.732 µM,[1]; [4],18.8%
same,viability at 0.839 µg/mL,[1]; [4],7.2%
same,viability at 2.31 µM,[1]; [4],19.9%
same,viability at 2.65 µg/mL,[1]; [4],6.6%
same,viability at 7.31 µM,[1]; [4],60.2%
same,viability at 23.1 µM,[1]; [4],79.5%
same,viability at 26.4 µg/mL,[1]; [4],84.6%
same,viability at 73 µM,[1]; [4],76.2%
same,viability at 83.7 µg/mL,[1]; [4],94.8%
same,viability at 230 µM,[1]; [4],75.4%
same,EC50,"[1]; Human immunodeficiency virus 1, CCRF-CEM, read-out: EC50 (effective kill concentration for 50% of the experimental virus)",~15.6 µg/mL
same,pEC50,"[1]; Human immunodeficiency virus 1, CCRF-CEM, read-out: EC50 (molar value)",5.26
same,TI50 (therapeutic index),"[1]; human, cem cells, 8640 min",> 4.22×10^+1
